How the values were obtained:
[1] = test system: milk somatic cell concentration (SCC); assay: Milk somatic cell concentration (SCC) after intramammary infusion at drying-off; format: in vivo, dairy cows
Description: (§1) Experimental Design: At dry-off all quarters of even numbered cows (n=39) were infused with antibiotics (Cefa-Dri (Fort Dodge Animal Health, Fort Dodge, Iowa 50501) containing 300 mg cephapirin […] in peanut oil) approved for use by FDA. All quarters of odd numbered cows (n=40) were infused with dextran (total dose 100 mg DEAE-dextran (Sigma Chemical Co. St. Louis, Mo.)) in 1 ml of sterile filtered distilled water and suspended in 9 ml of peanut oil (Sigma).
Mammary quarters of 4 dairy cows at drying-off were infused with either 100 mg of DEAE-dextran, peanut oil, or were uninfused. Secretions were collected at 0, 24, 48, 72, 96, and 120 hours post infusion for determination of milk somatic cell concentration.

[2] = Milk yield in the subsequent lactation after infusion at dry-off; format: in vivo, cows; settings: for Mean yearly milk yield: mean per cow of the group
Description: as §1

[3] = test system: intramammary infections (mastitis); assay: Intramammary infection status before dry-off and after calving, all 4 quarters infused at dry-off; format: in vivo, cows; settings: for new infections (quarters infected during the dry period) / old infections (quarters remaining infected after calving): group total after calving; for infected quarters at dry-off: baseline before infusion
Description: as §1

diethylaminoethyl-dextran
milk somatic cell count ([1]; 0 hour, quarters of 4 dairy cows infused with 100 mg at drying-off): 129000 mL⁻¹
milk somatic cell count ([1]; 24 hours post infusion, 100 mg per quarter at drying-off): 19,591 ×10^3/ml
milk somatic cell count ([1]; 72 hours post infusion, 100 mg per quarter at drying-off): 8,000 ×10^3/ml
milk somatic cell concentration (SCC) increased to ([1]; total dose 100 mg in 1 ml water suspended in 9 ml peanut oil (FIG. 1)): one million
clinical symptoms (swelling, elevated body temperature, redness of udder, pain) ([1]; total dose 100 mg intramammary): no clinical symptoms
milk yield per cow more than cows that received antibiotics [2]: approximately 700 pounds
Mean yearly milk yield [2]: Mean 26029 pounds
Mean yearly milk yield ([2]; listed as dextran): 26,029 pounds
new infections (quarters infected during the dry period) [3]: 26 new infections quarters
old infections (quarters remaining infected after calving) [3]: 17 old infections quarters
new infections (quarters infected during the dry period) ([3]; listed as dextran): 26 quarters
old infections (quarters remaining infected after calving) ([3]; listed as dextran): 17 quarters
infected quarters at dry-off ([3]; group total): 38 quarters infected
infected quarters at dry-off ([3]; group total, listed as dextran): 38 quarters
total infections after calving ([3]; group total, old plus new): 43 infections
net gain of intramammary infections ([3]; total after calving compared to infected quarters at dry-off): 5 infections
